Key:
EL-4 cells = test: Sphingomyelin and ceramide levels in intact EL-4 cells; format: cell-based, murine
Description: IL-1β effects on sphingomyelin levels in EL4 cells. Time course (A) and dose response (B). Cells were grown to growth arrest (1-1.5×10^6 cells ml^-1) in DME/Ham's F12 medium (1:1, v/v) containing 10% horse serum and for 48 hours [^3 H]choline (1 μCi ml^-1). On the day of an experiment, cells were resuspended back into the same medium at 10×10^6 cells ml^-1 and stimulated with 40 ng ml^-1 IL-1β for the indicated times (A) or for 30 minutes with increasing concentrations of IL-1β (B). Human IL-1β may be obtained using methods well known to those skilled in the art. Reactions were terminated with CHCl3 :CH3 OH:HCl (100:100:1) containing 10 mM EDTA (82). Lipids in the organic phase extract were dried under N2 and subjected to mild alkaline hydrolysis (0.1 M methanolic KOH for 1 hour at 37° C.) to remove glycerophospholipids. Sphingomyelin was resolved by thin-layer chromatography (TLC) using CHCl3 :CH3 OH:CH3 COOH:H2 O (60:30:8:5) as solvent, identified by iodine vapor staining, and quantified by liquid scintillation spectrometry. As previously reported, the use of [^3 H]choline as a measure of sphingomyelin content was validated by simultaneous phospholipid phosphorus measurements. Each value represents the mean±SEM of triplicate determinations from four experiments in (A), and one representative of four similar studies performed in triplicate in (B).
Effect of IL-1β on ceramide levels in EL-4 cells. Cells were stimulated as in FIG. 12 with IL-1β (40 ng ml^-1) and ceramide contained within the organic phase extract quantified enzymatically using the E. coli diacylglycerol kinase reaction. Lipids were resolved by TLC using CHCl3 :CH3 OH:CH3 COOH (65/15/5) as solvent, autoradiographed and quantified by liquid scintillation spectrometry. Each value represents the mean±SEM of triplicate determinations from 10 experiments.
The murine thymoma EL-4 cell line is a well-defined IL-1 responsive cell line that expresses functional IL-1 receptors. Upon stimulation with IL-1, these cells up-regulate the IL-2 receptor and secrete IL-2 [62]. Initial studies were designed to investigate the effects of IL-1β on cellular sphingomyelin content. Cells, grown in Dulbecco's Modified Eagle's (DME)/Ham's F-12 medium containing 10% horse serum and [^3 H]choline (1 μCi ml^-1), were resuspended back into the same medium at 10×10^6 cells ml^-1 and stimulated with IL-1β. IL-1β is commercially available.

[1] = system: ceramide-activated protein kinase; test: Ceramide-activated protein kinase activity (EGFR peptide) in EL-4 cell fractions
Description: Effect of IL-1β on ceramide-activated protein kinase activity. […] Homogenates were centrifuged at 500×g for 5 minutes to remove nuclei and at 200,000×g for 30 minutes to prepare microsomal membranes. Membranes were resuspended into homogenizing buffer (2.2 μg membrane protein μl^-1). For assay of kinase activity, the reaction mixture contained 20 μl of microsomal membrane, 40 μl EGFR peptide (4 mg ml^-1 in 25 mM Hepes, pH 7.4) and 100 μl buffer (50 mM HEPES, pH 7.4, 20 mM MgCl2). Phosphorylation was initiated at 22° C. by addition of 40 μl [γ-^32 P] ATP (100 μM final concentration) and terminated at the indicated times by addition of 40 μl of 0.5 M ATP in 90% formic acid. Phosphorylated peptide was eluted from a C18 Sep pak cartridge (Millipore), lyophilized, and resolved by C18 reverse phase HPLC using a linear gradient of acetonitrile. […] All assays were performed under conditions determined as linear for time and enzyme concentration. Enzyme activity was determined from the percent conversion of substrate to product and the specific radioactivity of [γ-^32 P] ATP. […] Values (mean±range) represent duplicate determinations from two experiments.
Activity was measured by the transfer of ^32 P from the γ-position of ATP to EGFR peptide (AA 663-681 of the EGFR). The effect of IL-1β on kinase activity was determined using microsomal membranes derived from cells stimulated with IL-1β.

sphingomyelin pathway = test: Sphingomyelin, ceramide and CAP kinase activity in EL-4 cell-free system; format: biochemical, murine (EL-4 cells); settings: IL-1β 10 ng ml^-1
Description: IL-1β effects on sphingomyelin and ceramide levels (A) and ceramide-activated protein kinase activity (B) in a cell-free system. […] Thereafter, supernates (300 μg incubation^-1 in 25 μl) were added to a reaction mixture (total volume 250 μl) as described in FIG. 14. For studies measuring lipid levels, incubations were stopped by extraction of lipids into an organic phase and resolved as described in FIGS. 12 and 13. For studies measuring kinase activity, incubations contained EGFR peptide and [^32 P]ATP, and phosphorylated peptide was quantified as described in FIG. 14. Background activity was subtracted from each point. Values (mean) represent data from two experiments for sphingomyelin performed in triplicate, three experiments for ceramide performed in triplicate, and five experiments for ceramide-activated protein kinase activity performed in duplicate.
Early kinetics of activation of a potential signaling system provide some support that the pathway might be involved in the signaling process. However, signal transduction pathways are highly regulated and often interrelated. […] To provide additional support for tight coupling of the sphingomyelin pathway to activation of the IL-1β receptor, studies were performed with subcellular fractions derived from EL-4 cells. For these studies, supernates, collected after a low-speed centrifugation to remove nuclei, were first incubated with IL-1β for 10 minutes at 4° C. to permit formation of IL-1 receptor complexes. Thereafter, reactions were initiated by warming supernates to 22° C. in a reaction mixture containing Mg^2+ at pH 7.4. These conditions were adopted to allow for activation of endogenous neutral sphingomyelinase. For studies measuring kinase activity, reaction mixtures also contained [^32 P] ATP and EGFR peptide. […] In separate studies, a statistically significant reduction in sphingomyelin content (n=10) and elevation in ceramide content (n=6) were detected at 1 minute of stimulation (p<0.005 vs. control). […] These effects were quantitatively similar to those determined in the intact cells.

protein kinase C = test: Protein kinase C activity in EL-4 cells (lysine-rich histone phosphorylation); format: cell-based, murine (EL-4 cells); settings: membrane or cytosolic fractions
YT cells = test: Ceramide generation in YT cells (preliminary); format: cell-based, human
[2] = p<0.005 vs. control at 1 minute

Substance: IL-1β: Human IL-1β
- ED50 (sphingomyelin hydrolysis) (EL-4 cells; 30 minutes): ≈ 2 ng ml^-1
- concentration of maximal effect (sphingomyelin hydrolysis) (EL-4 cells; 30 minutes): 10 ng/mL
- effective concentration (sphingomyelin hydrolysis) (EL-4 cells; 30 minutes): 0.01 ng/mL
- content of phosphatidylcholine (EL-4 cells; IL-1β): unchanged
- onset of reduction in sphingomyelin content (EL-4 cells; IL-1β 40 ng ml^-1): ≤ 2 min
- ceramide content (EL-4 cells; IL-1β 40 ng ml^-1, 2 minutes, from 360, p<0.005): 403 pmol 10^6 cells^-1
- maximum ceramide content (EL-4 cells; IL-1β 40 ng ml^-1, 15 minutes, from 360): 450 pmol 10^6 cells^-1
- sphingomyelin content (EL-4 cells; IL-1β 40 ng ml^-1, 30 minutes, baseline 800±14, mean±SEM, p<0.005): 648±16 pmol 10^6 cells^-1
- onset of ceramide increase (EL-4 cells; separate studies (n=4)): ≤ 30 s
- ED50 (kinase activity) [1]: ≈ 2 ng ml^-1
- concentration of maximal effect (kinase activity) [1]: 10 ng/mL
- effective concentration (kinase activity) [1]: 0.03 ng/mL
- onset of increase in kinase activity ([1]; IL-1β 10 ng ml^-1): 30 s
- time of maximal kinase activity ([1]; IL-1β 10 ng ml^-1): 2 min
- kinase activity ([1]; IL-1β 10 ng ml^-1, from 5): 11 pmol/min/mg
- kinase activity, fold of control ([1]; IL-1β 10 ng ml^-1, microsomal membranes, p<0.005): 2.1 fold of control
- cytosolic kinase activity toward EGFR peptide ([1]; cytosolic fractions): not enhanced
- ceramide-activated protein kinase activity, cell-free (sphingomyelin pathway): increased
- ceramide content, cell-free (sphingomyelin pathway; [2]): quantitative increase in ceramide content
- sphingomyelin content, cell-free (sphingomyelin pathway; [2]): rapid reduction in sphingomyelin content
- protein kinase C activity (protein kinase C): not enhanced
- ceramide generation (YT cells): rapid generation of ceramide
- IL-2 secretion in combination with TPA (EL4 cells; 24 h): stimulated secretion maximally
- IL-2 secretion, +TPA (EL4 cells; with TPA 20 ng ml^-1, 24 h, nd = not detectable, mean ± range): 261 ± 2

Source: patent US6040149A, “Assay for identifying agents which act on the ceramide-activated protein kinase, kinase suppressor of ras, and methods of using said agents” (priority 1997, dated 2000)
